Assays:
[1] = system: IRE-1α^−/− and wild type (WT) fibroblasts; assay: tunicamycin in IRE-1α+/+ and IRE-1α−/− fibroblasts; type: cell-based, mouse
Text: JNK activity was examined at indicated times following treatment with tunicamycin in IRE1a+/+ and IRE-1a−/− fibroblasts using an […] kinase assay and recombinant c-jun as substrate. JNK activity and total JNK levels (a). Phosphorylation of IRS-1 at ser307 residue in IRE1a+/+ and IRE-1a−/− fibroblasts following treatment with tunicamycin following IRS-1 immunoprecipitation (IP) and immunoblotting (IB) with an IRS-1 phosphoserine 307-specific antibody (b). Insulin (ins)-stimulated IRS-1 tyrosine phosphorylation and total IRS-1 in levels following treatment of IRE1a+/+ and IRE-1a−/− fibroblasts with tunicamycin.
(§1) (A) ER stress was induced in Fao liver cells by a 3-hour treatment with 5 μg/ml tunicamycin (Tun). Cells were subsequently stimulated with insulin (Ins). IRS-1 tyrosine and serine (Ser307) phosphorylation, Akt phosphorylation (Ser473), insulin receptor (IR) tyrosine phosphorylation, and their total protein levels were examined using either immunoprecipitation (IP) followed by immunoblotting (IB) or direct immunoblotting. (B) Quantitation of IRS-1 (tyrosine and Ser307), Akt (Ser473), and IR (tyrosine) phosphorylation under the experimental conditions described in (A) with normalization to protein levels for each molecule. (C) Inhibition of ER stress-induced (300 nM thapsigargin for 4 hours) Ser307 phosphorylation of IRS-1 by JNK-1 inhibitor, SP600125 (JNKi, 25 μM), (D) Quantitation of IRS-1 Ser307 phosphorylation under conditions described in (C). (E) Reversal of ER stress-induced inhibition of insulin-stimulated tyrosine phosphorylation (pY) of IRS-1 by a JNK inhibitor. (F) Quantitation of insulin-induced IRS-1 tyrosine phosphorylation levels described in (E). (G) JNK activity, Ser307 phosphorylation of IRS-1, and total IRS-1 levels at indicated times following tunicamycin treatment (Tun, 10 μg/ml for 1 hour) in IRE-1α^+/+ and IRE-1α^−/− fibroblasts. (H) Insulin-stimulated IRS-1 tyrosine phosphorylation and total IRS-1 levels following tunicamycin treatment (Tun, 10 μg/ml for 1 hour) in IRE-1α^+/+ and IRE-1α^−/− fibroblasts. […] All graphs show mean±SEM from at least 2 independent experiments and statistical significance from the controls is indicated by * with p<0.005.
In the presence of ER stress, increased phosphorylation of inositol requiring kinase-1α (IRE-1α) leads to recruitment of TNF-α receptor-associated factor 2 (TRAF2) protein and activates JNK (Urano et al., Science 287:664 (2000); incorporated herein by reference). To address whether ER stress-induced insulin resistance is dependent on intact IRE-1α, we measured JNK activation, IRS-1 serine phosphorylation, and insulin receptor signaling upon exposure of IRE-1α^−/− and wild type (WT) fibroblasts to tunicamycin. […]

Fao liver cells = assay: ER stress inducers and insulin action in Fao liver cells; type: cell-based, rat
Method: as §1
(A) ER stress was induced in Fao cells by 1 hour treatment with 300 nM thapsigargin (Thap), and cells were subsequently stimulated with insulin (Ins). IRS-1 tyrosine phosphorylation (pY) and serine phosphorylation (pSer307), insulin receptor (IR) tyrosine phosphorylation, and total protein levels were examined using either immunoprecipitation (IP) followed by immunoblotting (IB) or direct immunoblotting. (B) Fao cells were treated with sulindac sulfide (SS: 0, 7.5, 30, and 60 μM) for 45 minutes with or without an additional hour of exposure to 300 nM thapsigargin (Thap). IRS-1 serine phosphorylation and total IRS-1 protein levels were examined as described above.
To investigate whether ER stress interferes with insulin action, we pretreated Fao liver cells with tunicamycin and thapsigargin, agents commonly used to induce ER stress. […] IRS-1 is a substrate for insulin receptor tyrosine kinase and serine phosphorylation of IRS-1, particularly mediated by JNK, reduces insulin receptor signaling (Hirosumi et al., Nature 420:333 (2002); incorporated herein by reference).
Cells: Rat Fao liver cells were cultured with RPMI 1640 (Gibco, Grand Island, N.Y.) containing 10% fetal bovine serum (FBS). […]

[2] = Fao cells pretreated with the agent

In the case of tunicamycin, the “insulin-stimulated tyrosine phosphorylation of IRS-1” value ([1]; IRE-1α−/− cells) is reported as “no such effect was detected”, the “insulin-stimulated tyrosine phosphorylation of IRS-1” value ([1]; WT cells) is reported as “inhibited” and the JNK activation ([1]; WT fibroblasts) is reported as “strong activation of JNK”. The “phosphorylation of IRS-1 at Ser307” value ([1]; WT fibroblasts) was “stimulated”, the “insulin-induced Akt phosphorylation” value (Fao liver cells; [2]) was “suppressed” and the “serine phosphorylation of IRS-1” value (Fao liver cells; [2]) was “significant increase”. For the same substance, the “insulin-stimulated tyrosine phosphorylation of IRS-1” value (Fao liver cells; Fao liver cells pretreated with the agent) was “significantly decreased”.
